According to US20200140444A1, “INHIBITORS OF MUTANT ISOCITRATE DEHYDROGENASES AND COMPOSITIONS AND METHODS THEREOF” (IsoCure Biosciences Inc., priority 2017, published 2020):

Experiments:
[1] = target: IDH1 (R132H) (Homo sapiens, UniProt O75874, R132H); test: IDH enzyme assay, NADPH production or depletion measured by diaphorase/resazurin coupled detection; assay type: biochemical; settings: read-out: Compound IC50 (M) IDH1 (R132H)
Method: (§1) Compounds were tested against 2 enzymes.
(§2) The production or depletion of NADPH by IDH enzymes was measured by diaphorase/resazurin coupled detection.

[2] = target: IDH1 (R132C) (Homo sapiens, UniProt O75874, R132C); test: as above; assay type: biochemical; settings: read-out: Compound IC50 (M) IDH1 (R132C)
IDH1 (R132C), sequence (O75874 whole entry R132C): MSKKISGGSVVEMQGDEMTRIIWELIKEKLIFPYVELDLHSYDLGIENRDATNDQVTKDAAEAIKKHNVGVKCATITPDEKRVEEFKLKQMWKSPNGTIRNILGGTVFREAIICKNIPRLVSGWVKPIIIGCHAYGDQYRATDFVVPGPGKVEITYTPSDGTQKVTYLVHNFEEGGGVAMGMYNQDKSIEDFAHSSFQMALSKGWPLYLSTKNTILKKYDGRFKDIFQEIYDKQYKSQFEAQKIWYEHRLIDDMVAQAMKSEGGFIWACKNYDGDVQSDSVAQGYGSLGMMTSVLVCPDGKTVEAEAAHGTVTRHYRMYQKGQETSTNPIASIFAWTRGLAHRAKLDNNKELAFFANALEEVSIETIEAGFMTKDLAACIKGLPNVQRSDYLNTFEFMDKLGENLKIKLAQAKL
Method: as §1, §2

IDH1 (R132H), sequence (O75874 whole entry R132H): as the sequence (O75874 whole entry R132C) above, with C132H counted along it

Row | SMILES | IC50 [1] | IC50 [2]
1 | C[C@H](O)c1cccc(NC(=O)c2nc(Cc3ccccc3)n3c2CN(C(=O)c2ccc[nH]2)CC3)c1 [Compound 5-2, (S)-3-benzyl-N-(3-(1-hydroxyethyl)phenyl)-7-(1H-pyrrole-2-carbonyl)-5,6,7,8-tetrahydroimidazo[1,5-a]pyrazine-1-carboxamide] | 1.64e-06 M | 
2 | Cc1cccc(NC(=O)c2nc(Cc3ccccc3)n3c2CN(C(=O)c2ccc[nH]2)CC3)c1 [Compound 5-1, 3-benzyl-7-(1H-pyrrole-2-carbonyl)-N-(m-tolyl)-5,6,7,8-tetrahydroimidazo[1,5-a]pyrazine-1-carboxamide] | 5.36e-07 M | 3.1e-06 M
